Key:
[1] = previous work; cited from earlier work
Nf1-/- Schwann cells = assay: PDGF-mediated proliferation of NF1-deficient Schwann cells ([3H]-thymidine); assay type: cell-based, murine
Protocol: (§1) FIGS. 3A-3C depicts various properties of compound C20. FIG. 3A) Compound C20 inhibits PDGF-mediated Rac1-GTP activity at 0.5 μM in murine-derived neurofibroma cells. After 24-hour starvation in 0.5% BSA/DMEM, Nf1−/− Schwann cells were pretreated with compound C20 at the indicated concentrations. Cells were then stimulated with 50 ng/mL PDGF for 2 minutes and harvested for immunoprecipitation and activity assays. FIG. 3B) Compound C20 specifically interfered with Rac1-Tiam1 interactions at 15 nM in a GEF assay using purified protein. FIG. 3C) In [^3H]-thymidine dose-inhibition experiments, murine derived Nf1−/− Schwann cells were pre-treated with increasing quantities of the known Rac1 inhibitor NSC23766 or with putative Rac1 inhibitor C20.
In initial screens assaying platelet derived growth factor (PDGF)-mediated proliferation in NF1-deficient Schwann cells, compound C20 (KM04569, Ryan Scientific) was identified. C20 inhibited Schwann cell proliferation at 2 μM and Rac1GTP activity at 0.5 μM (FIGS. 3A-C). The structure of C20 is shown below:
Several analogs of C20 were identified or synthesized and were then screened using the NF1−/− Schwann cell proliferation assay. The initial set of thirteen analogs were developed (Table 1; First SAR) by making substitutions in the C and D pharmacophore elements.

Ras-GTP = Ras-GTP activation; assay type: cell-based; details: data not shown
Excerpt: (§2) No effect of C20 on Ras-GTP activation or Akt phosphorylation was observed (data not shown). However, C20 mitigated Erk1/2 phosphorylation.

Rac1-Tiam1 interactions = molecular target: T1, Rac1-Tiam1 interactions (Homo sapiens, UniProt P63000); assay: Rho-GEF exchange assay with purified Tiam1 and Rac1 (Cytoskeleton BK100 kit); assay type: biochemical
T1 construct: purchased Cytoskeleton, Inc. BK100
Protocol: as §1
Rho-GEF exchange experiments using a commercially available kit that measures guanine exchange fluorescence quantification (Cat #BK100; Cytoskeleton, Inc., Denver, Colo.) were conducted to measure GEF inhibition by C20.

Akt = Akt phosphorylation; assay type: cell-based; details: data not shown
Excerpt: as §2

Erk1/2 = Erk1/2 phosphorylation; assay type: cell-based
Excerpt: as §2

Rac1-GTP = molecular target: T2, Rac1-GTP (Mus musculus, UniProt P63001); assay: PDGF-mediated Rac1-GTP activity in Nf1-/- Schwann cells (immunoprecipitation and activity assay); assay type: cell-based; details: murine-derived neurofibroma cells (Nf1-/- Schwann cells), 50 ng/mL PDGF for 2 minutes
T2 construct: endogenous in cells; host or cells: murine-derived Nf1-/- Schwann cells
Protocol: FIG. 2 depicts the inhibition of Rac1-GTP activity by compound C20-26. Compound C20-26 inhibits PDGF-mediated Rac1-GTP activity at 40 nM in murine-derived neurofibroma cells. After 24-hour starvation in 0.5% BSA/DMEM, Nf1−/−Schwann cells were pretreated with compound C20-26 at the indicated concentrations. Cells were then stimulated with 50 ng/mL PDGF for 2 minutes and harvested for immunoprecipitation.
as §1

Rac1 = Rac1 (Homo sapiens, UniProt P63000); details: previous work; cited from earlier work

## CCN(CC)CCCC(C)Nc1nc(C)cc(Nc2ccc3nc(C)cc(N)c3c2)n1 (stereo not shown) [NSC23766]
[1]
  toxicity: high toxicity

## O=S(=O)(Oc1cc(Cl)cc(Cl)c1)c1ccc(-c2ccccn2)s1 [Compound C20]
Nf1-/- Schwann cells; Mus musculus, murine derived Nf1-/- Schwann cells, approximate, read-out: IC50, [3H]-thymidine dose-inhibition
  IC50: ~2 µM
Nf1-/- Schwann cells; PDGF-mediated proliferation, NF1-deficient Schwann cells
  concentration inhibiting Schwann cell proliferation: 2 µM
Ras-GTP
  effect on Ras-GTP activation: No effect
Rac1-Tiam1 interactions; GEF assay using purified protein
  concentration interfering with Rac1-Tiam1 interactions: 15 nM
Rac1-Tiam1 interactions; incubating Tiam1 and Rac1
  GEF inhibition: dose-dependent GEF inhibition
Akt
  effect on Akt phosphorylation: No effect
Erk1/2
  effect on Erk1/2 phosphorylation: mitigated
Rac1-GTP
  concentration inhibiting PDGF-mediated Rac1-GTP activity: 0.5 µM

## CCn1c2ccccc2c2cc(Nc3ccnc(NCCCN4CCOCC4)n3)ccc21 [EHop-016]
Rac1
  concentration inhibiting Rac1: 1.1 µM
